We go through one sequence from patent publication US9586993B2, “CD44v6-derived peptides for treating pancreatic cancer” (AMCURE GMBH, priority 2012, dated 2017).

Entries after “also recorded” stand apart in the source; their conditions may differ.

Assay [1] deals with Met activation and downstream signaling to ERK. Kind of assay: HGF-induced activation of Met and ERK in L3.6p1 cells (western blot). The class given is cell-based, human. The conditions noted are these: HGF 10 ng/ml. As for the experimental part: Serum-starved cells (24 hours) were induced with the growth factor HGF (10 ng/mL) at 37° C. for 5 minutes. Where indicated, the cells were treated with peptides (100 ng/ml) prior to induction at 37° C. for 10 minutes (100 ng/mL CD44v6 peptide or control peptide). Following the induction with HGF, cells were washed with ice-cold phosphate-buffered saline (PBS). To detect activated Met and Erk, cells were lysed in sodium dodecyl sulfate (SDS)-sample buffer containing 100 mM dithiothreitol (DTT), boiled and subjected to western blot analysis using antibodies against phospho-Met and ERK. The loading controls were performed on the same blot after stripping (62.5 mM Tris, pH 6.8, 2% SDS, 0.8% DTT) by probing with the Met respectively ERK antibody. Blots were stained using the enhanced chemiluminescence system (Thermo Fisher Scientific, Schwerte, Germany). Bands in western blot analysis were quantified with the program Image J (National Institutes of Health).
To expand the studies to human pancreatic tumors, the highly metastatic human pancreatic carcinoma cells L3.6p1 (Bruns, et al. Neoplasia (1999), 1(1):50-62) were investigated. These cells originate from the […] cells that have been passaged several times in the liver and the pancreas, a step that rendered them more and more metastatic. It was confirmed that Met is dependent on CD44v6 for its activation and signaling in these cells (FIG. 4A). The L3.6p1 cells were treated with HGF in the presence or absence of a human v6 peptide of SEQ ID NO: 2 or SEQ ID NO:6 and Met activation and downstream signaling to ERK was measured.
Background: Immunoblotting shows a protein as a band on a membrane.

For a further assay, the system named is VEGF. The assay can be described thus: Human VEGF in cell culture supernatant of L3.6p1 cells (Quantikine immunoassay). The class given is cell-based. The following applies: 200 ng/ml peptide in the culture medium, 5 days. As for the experimental part: Determination of human HGF and VEGF levels in cell culture medium of L3.6p1 cells were performed using the Quantikine Human HGF Immunoassay and Quantikine Human VEGF Immunoassay from […]. For this purpose 3×10^6 cells were cultured for 5 days in a 15 cm plate in the presence of the respective peptides as indicated. The supernatant (20 ml) was centrifuged (1200 rpm) and the assay was performed according to manufacturer's instructions.

Another assay relates to Met. Kind of assay: HGF-induced Met activation in HeLa cells (western blot). The conditions noted are these: HGF 25 ng/ml, peptide 10 minutes before induction. The assay is classed as cell-based, human. As for the experimental part: (§1) FIG. 12: A: Activation of Met and signal transduction induced by HGF depends on CD44v6 in L3.6p1 cells. L3.6p1 cells were treated with the human v6 peptide (human v6 14mer) or the rat v6 peptide as control prior to induction with 10 ng/ml HGF. Activation of Met and ERK was determined in western blot. The numbers refer to the fold induction. The experiment was repeated at least 5 times. B: Activation of c-Met and signal transduction induced by HGF depends on CD44v6 HeLa cells. Starved HeLa cells respectively HT29 cells were incubated with the v6 peptide (human v6 14mer) or a control peptide for 10 minutes at 37° C. and then induced with 25 ng/ml of HGF for the indicated time points. Cells were then either lysed and the lysates were subjected to Western Blot analysis for phospho-Met and Met. C: Activation of c-Met and signal transduction induced by HGF depends on CD44v6 in HT29 cells. HGF-induced c-Met and Erk phosphorylation in HT29 was determined as described above using phospho-specific antibodies. […]
(§2) The contribution of CD44v6 to Met signaling in the human epithelial pancreatic cancer cells L3.6p1 (derived from Colo 357), the cervix carcinoma cells HeLa and the colon cancer cells HT29 were analysed using the CD44v6 peptide (v6 14mer; v6 5mer tested as well, data not shown).

Assay [2] concerns c-Met and Erk phosphorylation. Kind of assay: HGF-induced c-Met and Erk phosphorylation in HT29 cells (western blot). The class given is cell-based, human. As for the experimental part:
as §1, §2

Another assay relates to ErbB receptors. The assay can be described thus: ErbB ligand-induced Erk-kinase phosphorylation in HT29 cells. The assay is classed as cell-based, human. The conditions noted are these: 100 ng/ml peptide; for inhibition of EGF-dependent Erk phosphorylation: 20 ng/ml EGF. The protocol: Serum-starved HT29 cells were pre-incubated for 5 min with 100 ng/ml of a CD44v6-specific peptide (human v6 14mer) or a control peptide. Afterwards the cells were induced with 20 ng/ml of various ErbB ligands as indicated. The cell lysates were resolved by SDS-PAGE. Western-blotting was used to detect ErbB ligands-induced Erk-kinase phosphorylation.
Serum-starved HT29 cells were pre-incubated for 5 min with 100 ng/ml of CD44v6-specific peptide (pep1=14mer, pep2=5mer) or a control peptide. Afterwards the cells were induced with 20 ng/ml of EGF or TGFα and lysed. The cell lysates were resolved by SDS-PAGE. Western-blotting was used to detect EGF and TGFα induced Erk-kinase phosphorylation.
For this purpose HT29 cells were serum-starved for 24 hours and pre-treated with the v6-specific or a control peptide. They were then induced with the indicated ErbB ligands. Erk-kinase phosphorylation was used as a read-out for receptor activation. All ligands could activate the Erk-kinase.

The subject of another assay is Erk phosphorylation. The assay can be described thus: EGF- and TGFα-induced Erk phosphorylation in MCF7 cells. The assay is classed as cell-based, human.
Assay [3] relates to L3.6p1 pancreatic carcinoma cells. Kind of assay: Human orthotopic model, L3.6p1 cells in the pancreas of nude mice. The assay is classed as in vivo, mouse. The conditions noted are these: dose reduction experiment, 0.2 to 20 μg per injection three times per week for 3 weeks.

Regarding “KEQWFGNRWHEGYR [human 14mer, human CD44v6 14mer peptide]”, the “inhibition of HGF-induced activation (phosphorylation) of Met and ERK” value in assay [1] was “able to prevent activation of Met and of its downstream target Erk”; in assay [1] (listed as SEQ ID NO:6) it was “Phosphorylation of both Met and ERK was inhibited”. Further, the “hVEGF secretion by L3.6p1 cells” value in the assay with VEGF is listed as “can be blocked”. The “inhibition of HGF-induced activation of Met and Erk” value in the assay with Met is “able to prevent activation of Met and of its downstream target Erk”; in assay [2], “able to prevent activation of Met and of its downstream target Erk”. Moreover, the “inhibition of EGF-dependent Erk phosphorylation” value in the assay on ErbB receptors (listed as human v6 14mer) was “inhibited”; in the assay with ErbB receptors (listed as pep1), “can be blocked”. The “inhibition of ER-dependent Erk phosphorylation” value in the assay with ErbB receptors (20 ng/ml ER) was “inhibited”. For the same sequence, in the assay with ErbB receptors (20 ng/ml ligand), the “inhibition of ErbB receptor induction via TGF-α, BC, Her, HB-EGF or AR (Erk phosphorylation)” value is recorded as “completely independent of CD44v6”. For the same sequence, in the assay with Erk phosphorylation, the “Erk phosphorylation upon EGF treatment” value was “blocking of Erk phosphorylation”. The “Erk phosphorylation upon TGFα induction” value in the assay with Erk phosphorylation was “not upon TGFα induction”. In assay [3], the “size / growth of the primary tumor” value is “significant decrease of the size of the primary tumor; also recorded: reduces growth of the primary tumor”.
